Source: patent US9249178B2, “Tricyclic nucleosides and oligomeric compounds prepared therefrom” (UNIVERSITÄT BERN, priority 2012, dated 2016)

Columns and labels:
[1] = tested on: complementary DNA; assay: Tm study of 10mer oligomeric compounds duplexed to DNA; format: binding; conditions: 150 mM NaCl, 10 mM phosphate, 0.1 mM EDTA, pH 7; for ΔTm/mod (° C.) vs DNA: duplex with complementary DNA, compared to unmodified 10mer A01
Description: (§1) The relative ability of a chemically-modified oligomeric compound to bind to complementary nucleic acid strands, as compared to natural oligonucleotides, is measured by obtaining the melting temperature of a hybridization complex of said chemically-modified oligomeric compound with its complementary unmodified target nucleic acid. The melting temperature (Tm), a characteristic physical property of double helixes, denotes the temperature in degrees centigrade at which 50% helical versus coiled (unhybridized) forms are present. Tm (also commonly referred to as binding affinity) is measured by using the UV spectrum to determine the formation and breakdown (melting) of hybridization. Base stacking, which occurs during hybridization, is accompanied by a reduction in UV absorption (hypochromicity). Consequently a reduction in UV absorption indicates a higher Tm. Following standard automated DNA synthesis protocols oligomeric compounds were prepared comprising one or more tricyclic nucleosides for Tm studies. After cleavage from the solid support, the oligomeric compounds were purified by ion exchange HPLC and analyzed by LCMS using standard procedures. The Tm of the modified 10mer oligomeric compounds were compared to an unmodified 10mer DNA oligonucleotide when duplexed to either DNA or RNA. Tm's were determined using a Cary 100 Bio spectrophotometer with the Cary Win UV thermal program was used to measure absorbance vs. temperature. For the Tm experiments, the oligomeric compounds were prepared at a concentration of […] in a buffer of 150 mM NaCl, 10 mM phosphate, 0.1 mM EDTA at pH 7. The concentration determined at 85° C. was […] after mixing of equal volumes of selected oligomeric compound and complementary RNA or DNA. The oligomeric compounds were hybridized with a complementary RNA or DNA by heating the duplex to 90° C. for 5 minutes and then cooling to room temperature. Tm measurements were taken using a spectrophotometer while the duplex solution was heated in a cuvette at a rate of 0.5° C./min starting at 15° C. until the temperature was 85° C. Tm values were determined using Vant Hoff calculations (A260 vs temperature curve) using non self-complementary sequences where the minimum absorbance related to the duplex and the maximum absorbance related to the non-duplex single strand are manually integrated into the program.

[2] = tested on: complementary RNA; assay: Tm study of 10mer oligomeric compounds duplexed to RNA; format: binding; conditions: 150 mM NaCl, 10 mM phosphate, 0.1 mM EDTA, pH 7; for ΔTm/mod (° C.) vs RNA: duplex with complementary RNA, compared to unmodified 10mer A01
Description: as §1

Row | Substance | Tm duplexed with DNA [1] | ΔTm/mod (° C.) vs DNA [1] | Tm duplexed with RNA [2] | ΔTm/mod (° C.) vs RNA [2]
1 | AACTGTCACG (unmodified DNA) [A01, unmodified 10mer DNA oligonucleotide, phosphodiester linkages, reference compound] | 47.9 °C | 0 °C | 48.3 °C | 0 °C
2 | AACTGTbCACG [A02] | – | −0.9 °C | – | +0.4 °C
3 | AACTGTdCACG (AACTGT_{d}CACG; as printed in the source, key not given here) [A03, 10mer phosphodiester DNA with one tricyclic nucleoside of subscript d, subscripts drawn in drawing 18] | – | +0.5 °C | – | +2.1 °C
4 | AACTbGTCACG [A04] | – | +0.1 °C | – | +2.4 °C
5 | AACTbGTbCACG [A06] | – | −0.7 °C | – | +0.5 °C
6 | AACTcGTcCACG [A07] | – | −1.0 °C | – | +1.3 °C
7 | AACTdGTCACG (AACT_{d}GTCACG; as printed in the source, key not given here) [A05, 10mer phosphodiester DNA with one tricyclic nucleoside of subscript d] | – | +0.4 °C | – | +2.4 °C
8 | AACTdGTdCACG (AACT_{d}GT_{d}CACG; as printed in the source, key not given here) [A08, 10mer phosphodiester DNA with two tricyclic nucleosides of subscript d] | – | −0.6 °C | – | +1.2 °C
9 | AACTeGTeCACG (AACT_{e}GT_{e}CACG; as printed in the source, key not given here) [A09, 10mer phosphodiester DNA with two tricyclic nucleosides of subscript e (tc^hdT)] | – | −13.0 °C | – | −10.2 °C
10 | AACTfGTfCACG (AACT_{f}GT_{f}CACG; as printed in the source, key not given here) [A10, 10mer phosphodiester DNA with two tricyclic nucleosides of subscript f] | – | −2.0 °C | – | +1.3 °C
11 | AaAaCaTaGaTaCaAaCaGa [A11, reference compound] | – | +1.3 °C | – | +2.1 °C
12 | AaAaCaTaGaTdCaAaCaGa [A12] | – | −2.8 °C | – | −0.6 °C
13 | AaAaCaTbGaTbCaAaCaGa [A14] | – | +1.1 °C | – | +2.0 °C
14 | AaAaCaTcGaTcCaAaCaGa [A15] | – | +1.1 °C | – | +2.0 °C
15 | AaAaCaTdGaTaCaAaCaGa [A13] | – | −3.8 °C | – | −2.6 °C
16 | AaAaCaTdGaTdCaAaCaGa [A16] | – | +1.1 °C | – | +2.3 °C
